# Reference: ChEMBL document CHEMBL3046917, “Antimicrobial evaluation of 4-methylsulfanyl benzylidene/3-hydroxy benzylidene hydrazides and QSAR studies” (2012)
# How the values were obtained:
# Format in all cases: functional
# Bacillus subtilis [1] = experiment: Bacteriostatic activity against Bacillus subtilis MTCC 2063 after 24 hr by tube dilution method
# Bacillus subtilis [2] = experiment: Bactericidal activity against Bacillus subtilis MTCC 2063
# Aspergillus niger [3] = experiment: Fungicidal activity against Aspergillus niger MTCC 8189
# Candida albicans [4] = experiment: Fungicidal activity against Candida albicans MTCC 227
# Staphylococcus aureus [5] = experiment: Bactericidal activity against Staphylococcus aureus MTCC 2901
# Escherichia coli [6] = experiment: Ratio of MBC to MIC for Escherichia coli MTCC 1652
# Escherichia coli [7] = experiment: Bactericidal activity against Escherichia coli MTCC 1652
# Staphylococcus aureus [8] = experiment: Bacteriostatic activity against Staphylococcus aureus MTCC 2901 after 24 hr by tube dilution method
# Aspergillus niger [9] = experiment: Fungistatic activity against Aspergillus niger MTCC 8189 after 7 days by tube dilution method
# Escherichia coli [10] = experiment: Bacteriostatic activity against Escherichia coli MTCC 1652 after 24 hr by tube dilution method
# Aspergillus niger [11] = experiment: Ratio of MFC to MIC for Aspergillus niger MTCC 8189
# Staphylococcus aureus [12] = experiment: Ratio of MBC to MIC for Staphylococcus aureus MTCC 2901
# Candida albicans [13] = experiment: Fungistatic activity against Candida albicans MTCC 227 after 48 hr by tube dilution method
# Candida albicans [14] = experiment: Ratio of MFC to MIC for Candida albicans MTCC 227
# Bacillus subtilis [15] = experiment: Ratio of MBC to MIC for Bacillus subtilis MTCC 2063
Compound,-logMIC (Bacillus subtilis [1]),MBC (Bacillus subtilis [2]) [µM],MFC (Aspergillus niger [3]) [µM],MFC (Candida albicans [4]) [µM],MBC (Staphylococcus aureus [5]) [µM],Ratio (Escherichia coli [6]),MBC (Escherichia coli [7]) [µM],-logMIC (Staphylococcus aureus [8]),-logMIC (Aspergillus niger [9]),-logMIC (Escherichia coli [10]),Ratio (Aspergillus niger [11]),Ratio (Staphylococcus aureus [12]),-logMIC (Candida albicans [13]),Ratio (Candida albicans [14]),Ratio (Bacillus subtilis [15])
O=C(/C=C/c1ccccc1)N/N=C/c1cccc(O)c1,1.93,46,93,93,46,3,46,1.7,1.93,1.32,3,3,1.93,3,3
COc1ccc(C(=O)N/N=C/c2ccc(SC)cc2)cc1OC,1.42,> 151,> 151,> 151,37,3,> 151,1.72,1.59,1.7,3,3,1.42,3,3
CCCCCCCCCCCC(=O)N/N=C/c1ccc(SC)cc1,1.45,> 142,71,> 142,> 142,3,> 142,1.3,1.25,1.3,3,3,1.66,3,3
O=C(N/N=C/c1cccc(O)c1)c1cc([N+](=O)[O-])cc([N+](=O)[O-])c1,1.42,> 151,37,> 151,> 151,3,> 151,1.12,2.02,1.42,3,3,1.42,3,3
C/C=C/C=C/C(=O)N/N=C/c1ccc(SC)cc1,0.72,> 192,96,> 192,192,3,> 192,1.02,1.32,1.32,3,3,1.32,3,3
C/C=C/C=C/C(=O)N/N=C/c1cccc(O)c1,1.27,217,217,217,> 217,3,> 217,0.96,1.27,1.27,3,3,1.41,3,3
CCCCCCCCCCCC(=O)N/N=C/c1cccc(O)c1,0.8,157,78,157,> 157,3,157,0.98,1.71,0.98,3,3,1.1,3,3
CSc1ccc(/C=N/NC(=O)c2cc([N+](=O)[O-])cc([N+](=O)[O-])c2)cc1,2.06,69,69,> 138,69,3,8,1.46,2.06,2.06,3,3,0.86,3,3
O=C(O)c1cn(C2CC2)c2cc(N3CCNCC3)c(F)cc2c1=O [CIPROFLOXACIN],2.61,19,,,19,,19,2.61,,2.61,,,,,
CCCCCCCCCCCCCCCC(=O)N/N=C/c1ccc(SC)cc1,2.11,61,> 122,> 122,> 122,3,61,1.21,0.61,1.81,3,3,0.61,3,3
